Assay results: patent US4049898A (priority 1975, dated 1977)

How the values were obtained:
physchem = details: water, pH 2, water
fungus organisms = details: background statement; cited from earlier work
[1] = forms otherwise stable and appropriate; background statement; cited from earlier work

| Compound | solubility (physchem) [µg/mL] | antifungal properties (fungus organisms) | development of resistant strains or forms (fungus organisms) | water solubility (background, in words) [1] | amount soluble in 750 ml of methanol (solubility in methanol; 750 ml methanol) [mg] | solubility in methanol at pH 9.5 (in words) | extent of solubilization in methanol (solubility in methanol; 100 mg added to 750 ml methanol) [%] | extent of solubility in methanol at pH 9.5 (solubility in methanol; 100 mg in 80 ml methanol, pH adjusted to 9.5 with triethylamine) [%] |
| --- | --- | --- | --- | --- | --- | --- | --- | --- |
| C[C@@H]1[C@H](O)[C@@H](C)/C=C/C=C/C=C/C=C/C=C/C=C/C=C/[C@H](O[C@@H]2O[C@H](C)[C@@H](O)[C@H](N)[C@@H]2O)C[C@@H]2O[C@](O)(C[C@@H](O)C[C@@H](O)[C@H](O)CC[C@@H](O)C[C@@H](O)CC(=O)O[C@H]1C)C[C@H](O)[C@H]2C(=O)O [amphotericin B] | < 1000 | powerful antifungal properties | apparent inability of fungus organisms to develop readily any strains or forms that are resistant to amphotericin B | lack of adequate water solubility | 100 | completely soluble | – | – |
| Amphotericin B-Calcium-Oxalic Acid Complex [Example 1] | – | – | – | – | – | – | 40 | 35 |
